Results on 27 molecules are retold here after US11180482B2, “Anilinopyrimidines as haematopoietic progenitor kinase 1 (HPK1) inhibitors” (Ariad Pharmaceuticals, Inc., priority 2016, dated 2021).

The target of this experiment is Wild Type HPK1 (MAP4K1) Kinase (Homo sapiens (Human), UniProt Q92918). Put plainly: HPK1 Assay (Caliper EZ reader, fluorescein tagged peptide substrate). In kind it is biochemical. To be noted: ATP 500 micromolar, kinase 6 nM, pH 7.4. Here is the method: The enzymatic activity of Wild Type HPK1 (MAP4K1) Kinase was measured in the presence or absence of an inhibitor compound of the present disclosure by preparation of a reaction mixture containing a fluorescein tagged peptide (2 micromolar final concentration), ATP (Adenosine Triphosphate, 500 micromolar final concentration) and Wild Type kinase (6 nM final concentration) in a buffer system comprising 50 mM HEPES (Buffer), 3 mM MgCl2, 5% w/v Trehalose, 0.01% Brij 35 (Detergent), 0.1% Pluronic F127 (Surfactant), 0.1 mM EDTA (Ethylenediaminetetraacetic acid), 0.1 mM EGTA (ethylene glycol-bis(β-aminoethyl ether)-N,N,N′,N′-tetraacetic acid) and 1 mM DTT (Dithiothreitol) and at a pH of 7.4. The reactions were quenched by the addition of EDTA to a final concentration of 25 mM. A Caliper EZ reader was used to measure the extent of substrate to product conversion.
Wild Type HPK1 (MAP4K1) Kinase, sequence (Q92918 whole entry, species assumed): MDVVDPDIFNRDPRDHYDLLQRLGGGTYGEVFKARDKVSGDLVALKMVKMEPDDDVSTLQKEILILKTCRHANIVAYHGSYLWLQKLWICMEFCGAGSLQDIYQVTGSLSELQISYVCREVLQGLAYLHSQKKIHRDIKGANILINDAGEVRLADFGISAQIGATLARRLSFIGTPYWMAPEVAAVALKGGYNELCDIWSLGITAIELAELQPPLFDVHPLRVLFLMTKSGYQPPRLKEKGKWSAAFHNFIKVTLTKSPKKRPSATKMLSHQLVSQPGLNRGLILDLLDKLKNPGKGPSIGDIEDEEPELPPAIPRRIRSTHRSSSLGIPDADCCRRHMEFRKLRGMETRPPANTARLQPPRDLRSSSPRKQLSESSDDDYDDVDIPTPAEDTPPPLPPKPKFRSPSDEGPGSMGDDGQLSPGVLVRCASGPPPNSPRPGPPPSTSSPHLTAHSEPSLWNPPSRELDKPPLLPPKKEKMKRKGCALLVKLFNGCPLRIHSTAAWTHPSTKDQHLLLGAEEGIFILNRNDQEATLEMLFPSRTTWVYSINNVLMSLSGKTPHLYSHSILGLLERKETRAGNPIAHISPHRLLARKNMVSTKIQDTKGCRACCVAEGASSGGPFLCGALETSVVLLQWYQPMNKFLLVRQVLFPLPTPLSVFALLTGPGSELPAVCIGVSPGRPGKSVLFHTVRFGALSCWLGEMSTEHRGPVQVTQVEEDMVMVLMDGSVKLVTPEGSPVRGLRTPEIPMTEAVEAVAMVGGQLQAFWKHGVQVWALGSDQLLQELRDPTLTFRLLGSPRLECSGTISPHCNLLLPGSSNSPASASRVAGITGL
The peptide substrate used in the HPK1 assay was designed based on the amino acid sequence surrounding serine residue 376 of SLP76-Lymphocyte cytosolic protein 2 (a known intracellular substrate of HPK1). This sequence SSFPQSAsLPPYFSQ was modified as follows for use in Caliper assays of HPK1: the serine residues on either side of serine 376 were replaced with alanine, three lysine residues were added at the […] and a fluorescein tag (FAM) was attached to the […] to produce the sequence, FAM-FPQAAsLPPYFAKKK.
Regarding `COc1cc2c(cc1Nc1ncc(Cl)c(Nc3ccccc3P(C)(C)=O)n1)CN(C)C2` [Example I-1, (2-((5-Chloro-2-((6-methoxy-2-methylisoindolin-5-yl)amino)pyrimidin-4-yl)amino)phenyl)dimethylphosphine oxide], the IC50 – broadly, the concentration that inhibits the measured activity by half – fell in the range of 10 to 100 nM.

For `COc1cc2c(cc1Nc1ncc(Cl)c(Nc3ccccc3P(C)(C)=O)n1)CN(C)CC2` [Example I-2, (2-((5-chloro-2-((6-methoxy-2-methyl-1,2,3,4-tetrahydroisoquinolin-7-yl)amino)pyrimidin-4-yl)amino)phenyl)dimethylphosphine oxide], the IC50 is less than 5 nM.

`COc1cc2c(cc1Nc1ncc(Cl)c(Nc3ccccc3P(C)(C)=O)n1)CCN(C)CC2` [Example I-3, (2-((5-chloro-2-((8-methoxy-3-methyl-2,3,4,5-tetrahydro-1H-benzo[d]azepin-7-yl)amino)pyrimidin-4-yl)amino)phenyl)dimethylphosphine oxide] yielded an IC50 of 10 to 100 nM.

Consider `COc1cc2c(cc1Nc1ncc(Cl)c(Nc3ccccc3P(C)(C)=O)n1)CCCN(C)C2` [Example I-4, (2-((5-chloro-2-((8-methoxy-2-methyl-2,3,4,5-tetrahydro-1H-benzo[c]azepin-7-yl)amino)pyrimidin-4-yl)amino)phenyl)dimethylphosphine oxide], for which the IC50 is 10 to 100 nM.

`CN1CCc2cc(F)c(Nc3ncc(Cl)c(Nc4ccccc4P(C)(C)=O)n3)cc2C1` [Example I-5, (2-((5-chloro-2-((6-fluoro-2-methyl-1,2,3,4-tetrahydroisoquinolin-7-yl)amino)pyrimidin-4-yl)amino)phenyl)dimethylphosphine oxide]: the IC50 is less than 5 nM.

With `CN1CCc2cc(Cl)c(Nc3ncc(Cl)c(Nc4ccccc4P(C)(C)=O)n3)cc2C1` [Example I-6, 5-chloro-N^2-(6-chloro-2-methyl-3,4-dihydro-1H-isoquinolin-7-yl)-N^4-(2-dimethylphosphorylphenyl)pyrimidine-2,4-diamine], the 50% inhibitory concentration (IC50) was less than 5 nM.

In the case of `CCc1cc2c(cc1Nc1ncc(Cl)c(Nc3ccccc3P(C)(C)=O)n1)CN(C)CC2` [Example I-7, 5-chloro-N^4-(2-dimethylphosphorylphenyl)-N^2-(6-ethyl-2-methyl-3,4-dihydro-1H-isoquinolin-7-yl)pyrimidine-2,4-diamine], the IC50 was 5 to 10 nM.

In turn, `C=Cc1cc2c(cc1Nc1ncc(Cl)c(Nc3ccccc3P(C)(C)=O)n1)CN(C)CC2` [Example I-8, 5-chloro-N^4-(2-dimethylphosphorylphenyl)-N^2-(2-methyl-6-vinyl-3,4-dihydro-1H-isoquinolin-7-yl)pyrimidine-2,4-diamine] showed an IC50 of 5 to 10 nM.

In the case of `COc1c(Nc2ncc(Cl)c(Nc3ccccc3P(C)(C)=O)n2)cc2c(c1N)CC1CCCCN1C2` (stereo not drawn) [Example I-9, N^8-[5-chloro-4-(2-dimethylphosphorylanilino)pyrimidin-2-yl]-9-methoxy-2,3,4,6,11,11a-hexahydro-1H-benzo[b]quinolizine-8,10-diamine], the IC50 is 10 to 100 nM.

Consider `COc1cc2c(cc1Nc1ncc(Cl)c(Nc3ccccc3P(C)(C)=O)n1)CN1CCCCC1C2` (stereo not drawn) [Example I-10, 5-chloro-N^4-(2-dimethylphosphorylphenyl)N^2-(9-methoxy-2,3,4,6,11,11a-hexahydro-1H-benzo[b]quinolizin-8-yl)pyrimidine-2,4-diamine], for which the IC50 is less than 5 nM.

As for `COc1cc2c(cc1Nc1ncc(Cl)c(Nc3ccccc3P(C)(C)=O)n1)CN(C(C)C)CC2` [Example I-11, (2-((5-chloro-2-((2-isopropyl-6-methoxy-1,2,3,4-tetrahydroisoquinolin-7-yl)amino)pyrimidin-4-yl)amino)phenyl)dimethylphosphine oxide], the IC50 is less than 5 nM.

For the molecule `CCN1CCc2cc(OC)c(Nc3ncc(Cl)c(Nc4ccccc4P(C)(C)=O)n3)cc2C1` [Example I-12, (2-((5-chloro-2-((2-ethyl-6-methoxy-1,2,3,4-tetrahydroisoquinolin-7-yl)amino)pyrimidin-4-yl)amino)phenyl)dimethylphoshine oxide], the IC50 was less than 5 nM.

The molecule `COc1cc2c(cc1Nc1ncc(Cl)c(Nc3ccccc3P(C)(C)=O)n1)[C@H](N(C)C)CCC2` [Example I-13, (R)-(2-((5-chloro-2-((8-(dimethylamino)-3-methoxy-5,6,7,8-tetrahydronaphthalen-2-yl)amino)pyrimidin-4-yl)amino)phenyl)dimethylphosphine oxide] gave a 50% inhibitory concentration (IC50) of 10 to 100 nM.

Molecule `COc1cc2c(cc1Nc1ncc(Cl)c(Nc3ccccc3P(C)(C)=O)n1)[C@H](N(C)C)CC2` [Example I-14, (R)-(2-((5-chloro-2-((3-(dimethylamino)-6-methoxy-2,3-dihydro-1H-inden-5-yl)amino)pyrimidin-4-yl)amino)phenyl)dimethylphosphine oxide] registered an IC50 of 5 to 10 nM.

`COc1cc2c(cc1Nc1ncc(Cl)c(Nc3ccccc3P(C)(C)=O)n1)[C@@H](N(C)C)CCC2` [Example I-15, (S)-(2-((5-chloro-2-((8-(dimethylamino)-3-methoxy-5,6,7,8-tetrahydronaphthalen-2-yl)amino)pyrimidin-4-yl)amino)phenyl)dimethylphosphine oxide] displayed an IC50 of 100 to 10000 nM.

For `COc1cc2c(cc1Nc1ncc(Cl)c(Nc3ccccc3P(C)(C)=O)n1)[C@@H](N(C)C)CC2` [Example I-16, (S)-(2-((5-chloro-2-((3-(dimethylamino)-6-methoxy-2,3-dihydro-1H-inden-5-yl)amino)pyrimidin-4-yl)amino)phenyl)dimethylphosphine oxide], the IC50 was 100 to 10000 nM.

For the molecule `COc1cc2c(cc1Nc1ncc(Cl)c(Nc3ccccc3P(C)(C)=O)n1)CC(N(C)C)C2` (stereo not drawn) [Example I-17, (2-((5-chloro-2-((2-(dimethylamino)-6-methoxy-2,3-dihydro-1H-inden-5-yl)amino)pyrimidin-4-yl)amino)phenyl)dimethylphosphine oxide], the IC50 was 10 to 100 nM.

Turning to `COc1cc2c(cc1Nc1ncc(Cl)c(Nc3ccccc3P(C)(C)=O)n1)CCN(C)C2` [Example I-18, (2-((5-chloro-2-((7-methoxy-2-methyl-1,2,3,4-tetrahydroisoquinolin-6-yl)amino)pyrimidin-4-yl)amino)phenyl)dimethylphosphine oxide], the IC50 was less than 5 nM.

`CCP(=O)(CC)c1ccccc1Nc1nc(Nc2cc3c(cc2OC)CCN(C)C3)ncc1Cl` [Example I-19, (2-((5-chloro-2-((6-methoxy-2-methyl-1,2,3,4-tetrahydroisoquinolin-7-yl)amino)pyrimidin-4-yl)amino)phenyl)diethylphosphine oxide] showed an IC50 of less than 5 nM.

In the case of `CCP(=O)(CC)c1ccccc1Nc1nc(Nc2cc3c(cc2Cl)CCN(C)C3)ncc1Cl` [Example I-20, (2-((5-chloro-2-((6-chloro-2-methyl-1,2,3,4-tetrahydroisoquinolin-7-yl)amino)pyrimidin-4-yl)amino)phenyl)diethylphosphine oxide], the concentration for half-maximal inhibition (IC50) was less than 5 nM.

For the molecule `COc1cc2c(cc1Nc1ncc(Br)c(Nc3ccccc3P(C)(C)=O)n1)CN(C)CC2` [Example I-22, (2-((5-bromo-2-((6-methoxy-2-methyl-1,2,3,4-tetrahydroisoquinolin-7-yl)amino)pyrimidin-4-yl)amino)phenyl)dimethylphosphine oxide], the IC50 was less than 5 nM.

For the molecule `COc1cc2c(cc1Nc1ncc(OC)c(Nc3ccccc3P(C)(C)=O)n1)CN(C)CC2` [Example I-23, (2-((5-methoxy-2-((6-methoxy-2-methyl-1,2,3,4-tetrahydroisoquinolin-7-yl)amino)pyrimidin-4-yl)amino)phenyl)dimethylphosphine oxide], the IC50 is 5 to 10 nM.

As for `CN1CCc2c(Br)cc(Nc3ncc(Cl)c(Nc4ccccc4P(C)(C)=O)n3)cc2C1` [Example I-24, (2-((2-((5-bromo-2-methyl-1,2,3,4-tetrahydroisoquinolin-7-yl)amino)-5-chloropyrimidin-4-yl)amino)phenyl)dimethylphosphine oxide], the IC50 was less than 5 nM.

`COc1cc2c(cc1Nc1nccc(Nc3ccccc3P(C)(C)=O)n1)CN(C)CC2` [Example I-25, (2-((2-((6-methoxy-2-methyl-1,2,3,4-tetrahydroisoquinolin-7-yl)amino)pyrimidin-4-yl)amino)phenyl)dimethylphosphine oxide] showed an IC50 of 100 to 10000 nM.

`COc1cc2c(cc1Nc1ncc(F)c(Nc3ccccc3P(C)(C)=O)n1)CN(C)CC2` [Example I-26, (2-((5-fluoro-2-((6-methoxy-2-methyl-1,2,3,4-tetrahydroisoquinolin-7-yl)amino)pyrimidin-4-yl)amino)phenyl)dimethylphosphine oxide] had an IC50 of 10 to 100 nM.

Turning to `COc1cc2c(cc1Nc1ncc(C(F)(F)F)c(Nc3ccccc3P(C)(C)=O)n1)CN(C)CC2` [Example I-27, (2-((2-((6-methoxy-2-methyl-1,2,3,4-tetrahydroisoquinolin-7-yl)amino)-5-(trifluoromethyl)pyrimidin-4-yl)amino)phenyl)dimethylphosphine oxide], the IC50 is 5 to 10 nM.

For the molecule `COc1cc2c(cc1Nc1ncc(Cl)c(Nc3ccccc3P(C)(C)=O)n1)C(C)(C)N(C)CC2` [Example I-28, (2-((5-chloro-2-((6-methoxy-1,1,2-trimethyl-1,2,3,4-tetrahydroisoquinolin-7-yl)amino)pyrimidin-4-yl)amino)phenyl)dimethylphosphine oxide], the IC50 was 10 to 100 nM.
